The results in this text go back to patent US20150031674A1, “SERINE/THREONINE KINASE INHIBITORS” (GENENTECH, INC., priority 2013, published 2015).

The Ki is the equilibrium dissociation constant of an inhibitor or competing ligand from its target.

The structures appear in SMILES notation.

Chain of human recombinant PAK1-KD protein (Q13153 270-521 limits assumed): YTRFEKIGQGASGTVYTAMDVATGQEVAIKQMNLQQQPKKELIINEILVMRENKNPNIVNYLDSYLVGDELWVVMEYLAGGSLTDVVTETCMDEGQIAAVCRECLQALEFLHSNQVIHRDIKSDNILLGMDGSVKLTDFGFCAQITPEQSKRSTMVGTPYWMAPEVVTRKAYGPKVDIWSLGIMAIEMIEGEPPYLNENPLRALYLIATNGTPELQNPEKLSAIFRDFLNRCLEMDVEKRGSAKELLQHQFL

This assay has as its target human recombinant PAK1-KD protein (Homo sapiens, UniProt Q13153). In words: PAK1-KD (Kinase Domain) IC50 Zlyte Assay (FRET peptide substrate phosphorylation). As to conditions: Z'-LYTE, Biological Example 1.
Turning to `CNc1ncc2cc(-c3ccc(-c4cncc(C)n4)cc3Cl)c(=O)n(CC[C@H]3OC[C@H](N)CO3)c2n1` [Example I-177, 8-[2-(5-amino-1,3-dioxan-2-yl)ethyl]-6-[2-chloro-4-(6-methylpyrazin-2-yl)phenyl]-2-(methylamino)pyrido[2,3-d]pyrimidin-7-one], the Ki worked out at 6.82 nM.
Then `CNc1ncc2cc(-c3ccc(-c4csc(C)n4)cc3Cl)c(=O)n(C[C@H]3CNCCO3)c2n1` [Example I-182, 6-[2-chloro-4-(2-methylthiazol-4-yl)phenyl]-2-(methylamino)-8-[[(2R)-morpholin-2-yl]methyl]pyrido[2,3-d]pyrimidin-7-one], with 44.7 nM.
For the compound `Cc1cncc(-c2ccc(-c3cc4cnc(N)nc4n(C[C@H]4OC[C@H](N)CO4)c3=O)c(Cl)c2)n1` [Example I-163, 2-amino-8-[(5-amino-1,3-dioxan-2-yl)methyl]-6-[2-chloro-4-(6-methylpyrazin-2-yl)phenyl]pyrido[2,3-d]pyrimidin-7-one], the Ki stood at 26.9 nM.
In the case of `CNc1ncc2cc(-c3ccc(-c4cccc(C)n4)cc3Cl)c(=O)n(CCOC3CN(C)C3)c2n1` [Example I-196, 6-[2-chloro-4-(6-methyl-2-pyridyl)phenyl]-2-(methylamino)-8-[2-(1-methylazetidin-3-yl)oxyethyl]pyrido[2,3-d]pyrimidin-7-one] it was 18.5 nM; in that of `CNc1ncc2cc(-c3ccc(-c4cccc(C)n4)cc3Cl)c(=O)n(CC[C@H]3OC[C@@H](N)CO3)c2n1` [Example I-134, 8-[2-(5-amino-1,3-dioxan-2-yl)ethyl]-6-[2-chloro-4-(6-methyl-2-pyridyl)phenyl]-2-(methylamino)pyrido[2,3-d]pyrimidin-7-one], 3.45 nM; in that of `Cc1cncc(-c2ccc(-c3cc4cnc(NC(C)C)nc4n(CCC4CNC(=O)C4)c3=O)c(Cl)c2)n1` (single isomer, unassigned) [Example I-98, 6-[2-Chloro-4-(6-methylpyrazin-2-yl)phenyl]-2-(isopropylamino)-8-[2-(5-oxopyrrolidin-3-yl)ethyl]pyrido[2,3-d]pyrimidin-7-one], 21.8 nM.
`CNc1ncc2cc(-c3ccc(-c4cccc(C)n4)cc3C)c(=O)n(CCCO)c2n1` [Example I-132, 8-(3-hydroxypropyl)-2-(methylamino)-6-[2-methyl-4-(6-methyl-2-pyridyl)phenyl]pyrido[2,3-d]pyrimidin-7-one]: the Ki stood at 14.5 nM.
On to `CNc1ncc2cc(-c3ccc(-c4cncc(C)n4)cc3Cl)c(=O)n(C[C@H]3OC[C@H](NC)CO3)c2n1` [Example I-178, 6-[2-Chloro-4-(6-methylpyrazin-2-yl)phenyl]-2-(methylamino)-8-[[5-(methylamino)-1,3-dioxan-2-yl]methyl]pyrido[2,3-d]pyrimidin-7-one], for which the Ki came out at 13.5 nM.
Then `CNc1ncc2cc(-c3ccc(-c4csc(C5CC5)n4)cc3Cl)c(=O)n(C[C@@H]3CNCCO3)c2n1` [Example I-184, 6-[2-chloro-4-(2-cyclopropylthiazol-4-yl)phenyl]-2-(methylamino)-8-[[(2S)-morpholin-2-yl]methyl]pyrido[2,3-d]pyrimidin-7-one], with 43.1 nM; and `Cc1cccc(-c2ccc(-c3cc4cnc(NC5COC5)nc4n(C[C@@H]4CNCCO4)c3=O)c(Cl)c2)n1` [Example I-188, 6-[2-chloro-4-(6-methyl-2-pyridyl)phenyl]-8-[[(2S)-morpholin-2-yl]methyl]-2-(oxetan-3-ylamino)pyrido[2,3-d]pyrimidin-7-one], with 8.1 nM.
For the compound `CNc1ncc2cc(-c3ccc(-c4cncc(C)n4)cc3Cl)c(=O)n(CC(=O)N3CCNCC3)c2n1` [Example I-84, 6-(2-Chloro-4-(6-methylpyrazin-2-yl)phenyl)-2-(methylamino)-8-(2-oxo-2-(piperazin-1-yl)ethyl)pyrido[2,3-d]pyrimidin-7(8H)-one], the Ki stood at 59.2 nM.
Then `Cc1cccc(-c2ccc(-c3cc4cnc(NC(C)C)nc4n(CC(=O)N4CCNCC4)c3=O)c(Cl)c2)n1` [Example I-35, 6-[2-Chloro-4-(6-methyl-2-pyridyl)phenyl]-2-(isopropylamino)-8-(2-oxo-2-piperazin-1-yl-ethyl)pyrido[2,3-d]pyrimidin-7-one], with 4.2 nM.
In the case of `CNc1ncc2cc(-c3ccc(-c4cncc(C)n4)cc3Cl)c(=O)n(CC(=O)N3CCC(O)C3)c2n1` (stereo not shown) [Example I-157, 6-[2-chloro-4-(6-methylpyrazin-2-yl)phenyl]-8-[2-(3-hydroxypyrrolidin-1-yl)-2-oxo-ethyl]-2-(methylamino)pyrido[2,3-d]pyrimidin-7-one], the Ki amounted to 44.9 nM.
Then `CNc1ncc2cc(-c3ccc(-c4cncc(C)n4)cc3Cl)c(=O)n(CC(=O)N3CCC[C@H]3CN)c2n1` [Example I-154, 8-[2-[(2S)-2-(Aminomethyl)pyrrolidin-1-yl]-2-oxo-ethyl]-6-[2-chloro-4-(6-methylpyrazin-2-yl)phenyl]-2-(methylamino)pyrido[2,3-d]pyrimidin-7-one], with 39.4 nM; and `Cc1cncc(-c2ccc(-c3cc4cnc(NC5COC5)nc4n(CCOCCO)c3=O)c(Cl)c2)n1` [Example I-67, 6-[2-Chloro-4-(6-methylpyrazin-2-yl)phenyl]-8-[2-(2-hydroxyethoxy)ethyl]-2-(oxetan-3-ylamino)pyrido[2,3-d]pyrimidin-7-one], with 77.8 nM.
In the case of `CCNc1ncc2cc(-c3ccc(-c4cncc(C)n4)cc3Cl)c(=O)n(CCOC3CC(N)C3)c2n1` (stereo not shown) [Example I-117, 8-(2-(3-Aminocyclobutoxy)ethyl)-6-(2-chloro-4-(6-methylpyrazin-2-yl)phenyl)-2-(ethylamino)-pyrido[2,3-d]pyrimidin-7(8H)-one] it was 3.7 nM.
Then `Cc1cccc(-c2ccc(-c3cc4cnc(NC5COC5)nc4n(CCS(N)(=O)=O)c3=O)c(C)c2)n1` [Example I-166], with 17 nM; and `CNc1ncc2cc(-c3ccc(-c4cncc(C)n4)cc3Cl)c(=O)n(CC(=O)N[C@@H]3CCNC3)c2n1` [Example I-151, 2-[6-[2-Chloro-4-(6-methylpyrazin-2-yl)phenyl]-2-(methylamino)-7-oxo-pyrido[2,3-d]pyrimidin-8-yl]-N-[(3R)-pyrrolidin-3-yl]acetamide], with 12.4 nM.
As to `CCNc1ncc2cc(-c3ccc(-c4cccc(C)n4)cc3Cl)c(=O)n(CC[C@H](O)CO)c2n1` [Example I-123, 6-[2-Chloro-4-(6-methyl-2-pyridyl)phenyl]-8-[(3S)-3,4-dihydroxybutyl]-2-(ethylamino)pyrido[2,3-d]pyrimidin-7-one], the Ki is 7.08 nM.
Consider `CCc1cc(-c2cncc(C)n2)ccc1-c1cc2cnc(NC)nc2n(CCCN)c1=O` [Example I-131, 8-(3-aminopropyl)-6-[2-ethyl-4-(6-methylpyrazin-2-yl)phenyl]-2-(methylamino)pyrido[2,3-d]pyrimidin-7-one], for which the Ki was determined as 32.5 nM.
For the compound `CNc1ncc2cc(-c3ccc(-c4cccc(C)n4)cc3C)c(=O)n(CCC3CNCCO3)c2n1` (single isomer, unassigned) [Example I-104, 6-(2-Methyl-4-(6-methylpyridin-2-yl)phenyl)-2-(methylamino)-8-(2-(morpholin-2-yl)ethyl)pyrido[2,3-d]pyrimidin-7(8H)-one], the inhibition constant (Ki) amounted to 2.3 nM.
For `CCNc1ncc2cc(-c3ccc(-c4cncc(C)n4)cc3Cl)c(=O)n(CCN3CCNCC3=O)c2n1` [Example I-90, 6-[2-Chloro-4-(6-methylpyrazin-2-yl)phenyl]-2-(ethylamino)-8-[2-(2-oxopiperazin-1-yl)ethyl]pyrido[2,3-d]pyrimidin-7-one], the Ki is 322 nM.
`CCNc1ncc2cc(-c3ccc(-c4cncc(C)n4)cc3Cl)c(=O)n(CCC3CCNC(=O)C3)c2n1` (stereo not shown) [Example I-53, 6-[2-chloro-4-(6-methylpyrazin-2-yl)phenyl]-2-(ethylamino)-8-[2-(2-oxo-4-piperidyl)ethyl]pyrido[2,3-d]pyrimidin-7-one]: the Ki stood at 96.2 nM.
In the case of `CNc1ncc2cc(-c3ccc(-c4cccc(C)n4)cc3C)c(=O)n(C[C@H]3OC[C@H](N)CO3)c2n1` [Example I-170, 8-[(5-Amino-1,3-dioxan-2-yl)methyl]-2-(methylamino)-6-[2-methyl-4-(6-methyl-2-pyridyl)phenyl]pyrido[2,3-d]pyrimidin-7-one] it was 5.3 nM; in that of `CNc1ncc2cc(-c3ccc(-c4cccc(C)n4)cc3Cl)c(=O)n(CC3CCN(C)CC3)c2n1` [Example I-175, 6-[2-chloro-4-(6-methyl-2-pyridyl)phenyl]-2-(methylamino)-8-[(1-methyl-4-piperidyl)methyl]pyrido[2,3-d]pyrimidin-7-one], 19.8 nM.
Then `CNc1ncc2cc(-c3ccc(-c4cncc(C)n4)cc3Cl)c(=O)n(CCOC3CNC3)c2n1` [Example I-46, 8-[2-(azetidin-3-yloxy)ethyl]-6-[2-chloro-4-(6-methylpyrazin-2-yl)phenyl]-2-(methylamino)pyrido[2,3-d]pyrimidin-7-one], with 13.9 nM; and `CCc1cc(-c2cccc(C)n2)ccc1-c1cc2cnc(NC3COC3)nc2n(C[C@@H]2CNCCO2)c1=O` [Example I-194], with 26.5 nM; and `CCNc1ncc2cc(-c3ccc(-c4cncc(C)n4)cc3Cl)c(=O)n(CCOC3CCNC3)c2n1` (single isomer, unassigned) [Example I-51], with 13.2 nM.
As to `CCNCC(O)Cn1c(=O)c(-c2ccc(-c3cncc(C)n3)cc2Cl)cc2cnc(NCC)nc21` (stereo not shown) [Example I-25, 6-[2-chloro-4-(6-methylpyrazin-2-yl)phenyl]-2-(ethylamino)-8-[3-(ethylamino)-2-hydroxy-propyl]pyrido[2,3-d]pyrimidin-7-one], the inhibitory constant (Ki) worked out at 67.1 nM.
As for `CNc1ncc2cc(-c3ccc(-c4cncc(C)n4)cc3Cl)c(=O)n(CCC3OCC(N)CO3)c2n1` (stereo not shown) [Example I-37, 8-[2-(5-amino-1,3-dioxan-2-yl)ethyl]-6-[2-chloro-4-(6-methylpyrazin-2-yl)phenyl]-2-(methylamino)pyrido[2,3-d]pyrimidin-7-one], the Ki was 7.5 nM.
Then `CNc1ncc2cc(-c3ccc(-c4cncc(C)n4)cc3Cl)c(=O)n(C3CCS(=N)(=O)CC3)c2n1` (stereo not shown) [Example I-181, 6-[2-chloro-4-(6-methylpyrazin-2-yl)phenyl]-8-(1-imino-1-oxo-thian-4-yl)-2-(methylamino)pyrido[2,3-d]pyrimidin-7-one], with 110 nM.
